Measurements from ChEMBL document CHEMBL3758127, “Improving selectivity of dopamine D3 receptor ligands” (Bioorg Med Chem Lett, 2016).

Experiments:
[1] = biological target: T1, Alpha-1A adrenergic receptor (Homo sapiens, UniProt P35348); test: Displacement of [3H]-prazosin from human ADRA1A receptor
T1 sequence (P35348 whole entry): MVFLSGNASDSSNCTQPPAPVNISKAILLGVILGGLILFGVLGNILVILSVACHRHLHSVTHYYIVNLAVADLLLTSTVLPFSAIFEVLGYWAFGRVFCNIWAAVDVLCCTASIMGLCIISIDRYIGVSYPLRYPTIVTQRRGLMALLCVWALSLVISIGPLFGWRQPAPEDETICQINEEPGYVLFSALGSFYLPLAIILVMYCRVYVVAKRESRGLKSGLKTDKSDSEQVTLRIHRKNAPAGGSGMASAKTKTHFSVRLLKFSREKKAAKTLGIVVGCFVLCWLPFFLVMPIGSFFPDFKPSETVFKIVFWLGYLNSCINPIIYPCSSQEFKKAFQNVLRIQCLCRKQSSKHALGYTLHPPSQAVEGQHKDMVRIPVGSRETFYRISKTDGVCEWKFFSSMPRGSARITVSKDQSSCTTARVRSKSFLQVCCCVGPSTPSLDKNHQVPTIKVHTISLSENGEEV

D(3) dopamine receptor = D(3) dopamine receptor (Homo sapiens, UniProt P35462); test: Displacement of [3H]-spiperone from human dopamine D3 receptor expressed in CHO cell membranes
Sequence of D(3) dopamine receptor (P35462 whole entry): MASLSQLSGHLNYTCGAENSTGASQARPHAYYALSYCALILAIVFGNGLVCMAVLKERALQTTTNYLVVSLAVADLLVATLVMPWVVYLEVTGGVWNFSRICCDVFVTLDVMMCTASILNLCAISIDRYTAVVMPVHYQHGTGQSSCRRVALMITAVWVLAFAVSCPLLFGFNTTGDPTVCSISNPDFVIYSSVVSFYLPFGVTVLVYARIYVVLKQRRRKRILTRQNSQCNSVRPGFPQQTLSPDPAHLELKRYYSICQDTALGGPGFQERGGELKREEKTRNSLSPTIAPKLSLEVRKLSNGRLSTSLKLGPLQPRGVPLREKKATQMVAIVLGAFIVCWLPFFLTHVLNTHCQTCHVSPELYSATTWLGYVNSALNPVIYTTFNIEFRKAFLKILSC

Homo sapiens [2] = species: Homo sapiens; test: Selectivity ratio of Ki for human ADRA1A receptor to Ki for human dopamine D3 receptor
D(2) dopamine receptor = D(2) dopamine receptor (Homo sapiens, UniProt P14416); test: Displacement of [3H]-spiperone from human dopamine D2S receptor expressed in HEK293 cell membranes
Sequence of D(2) dopamine receptor (P14416 whole entry): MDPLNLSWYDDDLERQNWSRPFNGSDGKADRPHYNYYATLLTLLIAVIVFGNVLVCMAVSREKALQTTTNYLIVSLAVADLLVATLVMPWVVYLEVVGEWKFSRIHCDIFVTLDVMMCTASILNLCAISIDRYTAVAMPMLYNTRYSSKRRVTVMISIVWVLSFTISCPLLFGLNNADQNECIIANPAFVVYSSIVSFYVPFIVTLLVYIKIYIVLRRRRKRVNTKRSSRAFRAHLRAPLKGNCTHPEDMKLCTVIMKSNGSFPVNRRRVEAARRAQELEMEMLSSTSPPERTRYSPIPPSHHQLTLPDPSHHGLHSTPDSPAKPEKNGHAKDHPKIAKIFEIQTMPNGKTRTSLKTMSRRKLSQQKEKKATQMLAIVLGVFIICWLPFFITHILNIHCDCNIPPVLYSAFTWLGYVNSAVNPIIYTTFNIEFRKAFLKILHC

Homo sapiens [3] = species: Homo sapiens; test: Selectivity ratio of Ki for human dopamine D2S receptor to Ki for human dopamine D3 receptor
hERG (KCNH2) = hERG (KCNH2) (Homo sapiens, UniProt Q12809); test: Inhibition of dofetilide binding to human ERG at 1 uM; settings: probe dofetilide
Sequence of hERG (KCNH2) (Q12809 whole entry): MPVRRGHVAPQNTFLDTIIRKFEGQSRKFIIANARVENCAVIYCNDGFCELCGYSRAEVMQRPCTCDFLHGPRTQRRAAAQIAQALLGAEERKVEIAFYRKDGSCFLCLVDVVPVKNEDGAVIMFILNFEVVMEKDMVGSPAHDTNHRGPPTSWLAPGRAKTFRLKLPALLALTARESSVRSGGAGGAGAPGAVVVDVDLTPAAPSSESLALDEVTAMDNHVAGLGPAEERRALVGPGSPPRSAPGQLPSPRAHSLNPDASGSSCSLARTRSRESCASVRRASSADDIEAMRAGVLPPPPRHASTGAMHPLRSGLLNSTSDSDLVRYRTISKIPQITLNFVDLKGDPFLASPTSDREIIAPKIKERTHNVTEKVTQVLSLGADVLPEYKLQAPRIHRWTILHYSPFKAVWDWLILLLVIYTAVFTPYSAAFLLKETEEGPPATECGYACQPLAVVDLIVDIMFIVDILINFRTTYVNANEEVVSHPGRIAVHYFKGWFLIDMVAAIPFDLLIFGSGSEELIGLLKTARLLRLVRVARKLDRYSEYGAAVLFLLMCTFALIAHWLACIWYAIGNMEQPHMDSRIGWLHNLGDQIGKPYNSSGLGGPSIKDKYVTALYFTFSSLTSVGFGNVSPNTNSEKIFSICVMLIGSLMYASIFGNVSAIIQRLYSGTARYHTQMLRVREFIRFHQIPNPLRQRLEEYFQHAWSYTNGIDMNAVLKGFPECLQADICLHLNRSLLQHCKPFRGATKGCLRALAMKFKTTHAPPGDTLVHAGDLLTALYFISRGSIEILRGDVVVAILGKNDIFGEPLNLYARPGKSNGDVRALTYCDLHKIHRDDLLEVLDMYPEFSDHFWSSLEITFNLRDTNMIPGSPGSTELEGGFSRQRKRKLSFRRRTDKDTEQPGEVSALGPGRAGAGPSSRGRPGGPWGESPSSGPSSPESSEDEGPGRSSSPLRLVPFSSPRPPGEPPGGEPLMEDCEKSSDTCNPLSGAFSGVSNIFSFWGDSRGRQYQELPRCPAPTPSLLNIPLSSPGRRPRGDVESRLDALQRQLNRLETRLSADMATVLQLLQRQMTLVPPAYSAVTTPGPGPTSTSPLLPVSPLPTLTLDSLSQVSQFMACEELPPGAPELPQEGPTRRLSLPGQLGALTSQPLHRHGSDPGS

Ki [1]	Ki (D(3) dopamine receptor)	Ratio Ki (Homo sapiens [2])	Ki (D(2) dopamine receptor; read-out: Ki)	Ratio Ki (Homo sapiens [3])	Ki (D(2) dopamine receptor; hek293)	SMILES	inhibition at 1 µM (hERG (KCNH2))
5 nM	1.3 nM	4	13 nM	10		COc1ccccc1N1CCN(CCCCNC(=O)Nc2cccc(Cl)c2)CC1	
158 nM	3.5 nM	45	131 nM	37		O=C(NCCCCN1CCN(c2cccc3[nH]c(=O)[nH]c23)CC1)c1ccc2ccccc2c1	
116 nM	12 nM	10	1550 nM	130		COc1ccccc1N1CCN(CCCCNC(=O)N(C)c2ccccc2)CC1	
19 nM	1.3 nM	15	95 nM	73		O=C(NCCCCN1CCN(c2cccc3[nH]ccc23)CC1)c1ccc2ccccc2c1	
1520 nM	0.2 nM	7600	373 nM	1900		O=C(NCCCCN1CCN(c2cccc(O)c2)CC1)c1ccc2ccccc2c1	30%
166 nM	10.4 nM	16	12100 nM	1170		O=C(NCCCCN1CCN(c2ccc(Cl)cc2)CC1)c1ccc2ccccc2c1	
1030 nM	3.9 nM	264	911 nM	234		CCOC(=O)Nc1cccc(N2CCN(CCCCNC(=O)c3ccc4ccccc4c3)CC2)c1	
418 nM	123 nM	3			Not Active	COc1ccccc1N1CCN(CCCCNC(=O)CC(C)C)CC1	
50.2 nM	4.7 nM	11	3320 nM	700		O=C(NCCCCN1CCN(c2cccc(Cl)c2)CC1)c1ccc2ccccc2c1	
160 nM	1.6 nM	100	55 nM	34		CS(=O)(=O)Nc1cccc(N2CCN(CCCCNC(=O)c3ccc4ccccc4c3)CC2)c1	
46.7 nM	12.7 nM	3.7	5030 nM	400		O=C(NCCCCN1CCN(c2ccccc2O)CC1)c1ccc2ccccc2c1	
65.5 nM	2 nM	33	322 nM	161		COc1ccccc1N1CCN(CCCCNC(=O)CC2CCCCC2)CC1	
211 nM	0.5 nM	420	52 nM	100		O=C1Cc2c(cccc2N2CCN(CCCCNC(=O)c3ccc4ccccc4c3)CC2)N1	
38.5 nM	1.23 nM	31	310 nM	250		O=C(NCCCCN1CCN(c2ccccc2F)CC1)c1ccc2ccccc2c1	
10.3 nM	87 nM	0.1	34 nM	0.4		COc1ccccc1N1CCN(CCCCCOc2ccc3ccccc3c2)CC1	
230 nM	1.33 nM	170	302 nM	230		Cc1cccc(N2CCN(CCCCNC(=O)c3ccc4ccccc4c3)CC2)c1C	
81 nM	1.8 nM	45	482 nM	270		COc1ccccc1N1CCN(CCCCNC(=O)N2CCOCC2)CC1	
29.9 nM	0.7 nM	43	238 nM	340		O=C(NCCCCN1CCN(c2ccccc2Cl)CC1)c1ccc2ccccc2c1	
963 nM	0.9 nM	1070	168 nM	190		COc1ccccc1N1CCN(CCCCNC(=O)C2CCCCC2)CC1	82%
29.9 nM	0.73 nM	41	404 nM	550		Cc1ccccc1N1CCN(CCCCNC(=O)c2ccc3ccccc3c2)CC1	
104 nM	1.08 nM					O=C(NCCCCN1CCN(c2cccc(Cl)c2Cl)CC1)c1ccc2ccccc2c1	
283 nM	1.1 nM	260	1550 nM	1400		O=C(NCCCCN1CCN(c2cccc(C(F)(F)F)c2)CC1)c1ccc2ccccc2c1	51%
